In patent US10472677B2, “Translational dysfunction based therapeutics” (Translational Therapeutics, Inc., priority 2005, dated 2019):
Values joined by “and” are separate entries in the source; they are usually repeats but may differ in a detail not shown here. Equal entries are not always repeated. “Also recorded” adds a separate entry of the source. Starred links: 1 amine or outer side, 2 acyl side, 3 side chain; linkers in the order of their positions; H or OH if unused. Positions of bridges follow the written chain, without caps; N, C: chain ends. Non-standard residues stand in square brackets, D forms with d. Residues, ends and D or L forms follow the SMILES beside them. Chains are numbered I, II in the order given. Actinocin(9to1) = Cc1c2oc3c(C)ccc(C(=O)[*:1])c3nc-2c(C(=O)[*:2])c(N)c1=O; NMeV = CN[C@H](C(=O)O)C(C)C; Sar = CNCC(=O)O

What was measured:
[1] = target: T1, nuclear eIF4E-cyclin D1 mRNA association (Homo sapiens, UniProt P06730); test: eIF4E immunoprecipitation from nuclear lysates with cap analogue competition, RT-PCR; format: biochemical; details: 50 uM analogue
T1 construct: endogenous in cells; host or cells: HEK293T cells, nuclear lysate

4E-SE mRNA export = test: export of LacZ-4E-SE mRNA (c/n ratio, real time PCR) in eIF4E overexpressing U2OS cells; format: cell-based, human; details: for export of 4E-SE containing / cyclin D1 mRNA under inhibition of RNA or protein synthesis: actinomycin D 10 μg/ml, cycloheximide 100 μg/ml, 1 hour
Protocol: eIF4E and PML stably transfected NIH3T3 and U937 cells were as described (Topisirovic et al., 2002; Topisirovic et al., 2003a). U937 cells were used to analyze endogenous Pim1, which is not expressed in NIH3T3 cells. LacZ/LacZ-4E-SE with or without 2Flag-eIF4E as well as TetON LacZ system were stably transfected in U2OS cells. For NXF1 depletion, U2OS cells were transfected with Lipofectamine 2000 and 10 nM siRNA duplex HSC.RNAI.N006362.1.3 (IDT) according to the manufacturer's instruction. Cells were analyzed 72 h after transfection. Actinomycin D, cycloheximide and leptomycin B were all cell culture grade (Sigma).
Immunopurification was as previously published (Culjkovic et al., 2005). Real Time PCR analyses were performed using Sybr Green PCR Master mix (ABI) in Mx3000P™ thermal cycler (Stratagene), and data analyzed with MxPro software (Stratagene). All conditions were described previously (Culjkovic et al., 2005). All calculations were done using the relative standard curve method described in Applied Biosystems User Bulletin #2.
Fractionation and RNA isolation were as described (Lai and Borden, 2000; Topisirovic et al., 2002). Probes for U6 and tRNAlys for Northern blot analysis were previously described (Topisirovic et al., 2002).

eIF4E wild-type = target: T2, eIF4E wild-type (Mus musculus, UniProt P63073); test: tryptophan fluorescence quenching titration of nucleoside/nucleotide binding
T2 construct: made in house
Protocol: For fluorescence titrations, mouse eIF4E, which differs from human eIF4E by four nonconserved amino acids, was produced as described. For NMR spectroscopy, mouse eIF4E was expressed as a fusion with the B1 domain of protein G (G4E, kind gift of Gerhard Wagner, Harvard University, Cambridge, Mass.), in BL21 (DE-3) cells by induction with 0.8 mM isopropyl-β-D-thiogalactopyranoside at 18° C. for 20 h in M9 minimal media containing 1 g/l ^15NH4Cl as the sole nitrogen source (Cambridge Isotopes). Cells were lysed at 4° C. by sonication in 0.1 M NaCl/50 mM Tris.HCl (pH 7.5/0.5 mM EDTA/0.5% (vol/vol) Nonidet P-40/10 mM 2-mercaptoethanol/1 mM PMSF. Lysates were cleared by centrifugation at 30,000×g, adsorbed onto m^7G diphosphate-conjugated agarose (Amersham Pharmacia), and extensively washed with 0.1 M NaCl/20 mM Tris.HCl (pH 7.5)/0.5 mM EDTA (Buffer A) at 4° C. Subsequently, beads were washed with 0.1 mM GTP in Buffer A, and G4E was eluted with 5 mM m^7G in Buffer A. Eluate was diluted with 20 mM Na2PO4 (pH 7.5) to reduce NaCl concentration to 50 mM, applied to Sepharose Q anion exchange column (Amersham Pharmacia), and eluted with a linear gradient of NaCl in 20 mM Na2PO4 (pH 7.5) at 4° C. Eluate was dialyzed extensively against 0.1 M NaCl/50 mM Na2PO4 (pH 6.5)/5 mM DTT at 4° C. to produce apo-G4E, as verified by using NMR spectroscopy and fluorescence titrations. Purity and identity of G4E were verified by using SDS/PAGE and electrospray ionization MS. Proteins were concentrated by using Amicon concentrators (Millipore).
Fluorescence measurements were performed by using a home-built fluorimeter, as described. All titrations were performed in 0.3 M NaCl/10 mM Na2PO4 (pH 7.5)/1 μM zinc in 0.3×0.3 cm^2 fluorescence cuvette (Hellma), by using eIF4E concentration of 2 μM. […] Corrected relative fluorescence intensities were normalized, and fluorescence quenching curves were fit to a heuristic single-site-binding expression: I/I0=Kd^n/(x^n+Kd^n) where x is ligand concentration, Kd is the apparent dissociation constant, and n is the Hill coefficient.

eIF4E:m7G binding (G4E) = target: T3, eIF4E:m7G binding (G4E) (UniProt P06654+P63073); test: m7G-Sepharose affinity chromatography competition; design: species or system mouse
T3 construct: made in house; host or cells: E. coli BL21 (DE-3); construct a gift of Gerhard Wagner
Protocol: FIG. 9. […] Washed beads (three times with 75 bed volumes) were incubated with 50 uM of compounds as indicated for 30 min at room temperature. Beads were washed (three times with 75 bed volumes) to remove dissociated eIF4E, and eIF4E remaining bound to beads was resolved using SDS-PAGE, and visualized using Western blotting and chemiluminescence. […] Washed beads (five times with 50 bed volumes of LCB buffer) were incubated with 5 bed volumes of 50 uM of compounds as indicated for 20 min at 4° C. Then 20 uL of the supernatant containing dissociated eIF4E was transferred to a new tube, cleared of trace beads containing bound eIF4E, and resolved using SDS-PAGE, and visualized using Western blotting and chemiluminescence.
m^7G-Sepharose beads (Amersham Pharmacia, 20-μl slurry) were bound with 1.5 ml of 2 μM G4E, purified as described above, in 0.3 M NaCl/0.1 M sodium phosphate (pH 7.5)/10 μM protease-free BSA (USB)/0.1% Nonidet P-40 (Buffer B) for 30 min at room temperature. […] Upon washing released G4E three times with Buffer B, G4E remaining bound to m^7G-Sepharose was boiled in Laemmli buffer (10% glycerol/2% SDS/100 mM DTT/80 mM Tris.HCl/0.06% bromophenol blue, pH 6.8), subjected to SDS/PAGE, and visualized by using Western blotting, as described below.

HCV polymerase = HCV polymerase (Hepatitis C virus genotype 1a, UniProt P27958); details: read-out: dissociation constant for HCV polymerase; cited from earlier work
cap-driven translation = details: cited from earlier work
eIF4E = eIF4E (Homo sapiens, UniProt P06730); details: cited from earlier work
[2] = target: cap-binding complex (CBC) (Homo sapiens, UniProt P52298); details: cited from earlier work
Sequence of cap-binding complex (CBC) (P52298 whole entry): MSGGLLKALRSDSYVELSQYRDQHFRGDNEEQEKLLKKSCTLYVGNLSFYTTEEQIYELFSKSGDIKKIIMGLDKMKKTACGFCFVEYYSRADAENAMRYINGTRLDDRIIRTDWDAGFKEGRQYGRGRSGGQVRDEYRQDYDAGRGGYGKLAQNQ
Sequence of cap-binding complex (CBC) (Q09161 whole entry partner): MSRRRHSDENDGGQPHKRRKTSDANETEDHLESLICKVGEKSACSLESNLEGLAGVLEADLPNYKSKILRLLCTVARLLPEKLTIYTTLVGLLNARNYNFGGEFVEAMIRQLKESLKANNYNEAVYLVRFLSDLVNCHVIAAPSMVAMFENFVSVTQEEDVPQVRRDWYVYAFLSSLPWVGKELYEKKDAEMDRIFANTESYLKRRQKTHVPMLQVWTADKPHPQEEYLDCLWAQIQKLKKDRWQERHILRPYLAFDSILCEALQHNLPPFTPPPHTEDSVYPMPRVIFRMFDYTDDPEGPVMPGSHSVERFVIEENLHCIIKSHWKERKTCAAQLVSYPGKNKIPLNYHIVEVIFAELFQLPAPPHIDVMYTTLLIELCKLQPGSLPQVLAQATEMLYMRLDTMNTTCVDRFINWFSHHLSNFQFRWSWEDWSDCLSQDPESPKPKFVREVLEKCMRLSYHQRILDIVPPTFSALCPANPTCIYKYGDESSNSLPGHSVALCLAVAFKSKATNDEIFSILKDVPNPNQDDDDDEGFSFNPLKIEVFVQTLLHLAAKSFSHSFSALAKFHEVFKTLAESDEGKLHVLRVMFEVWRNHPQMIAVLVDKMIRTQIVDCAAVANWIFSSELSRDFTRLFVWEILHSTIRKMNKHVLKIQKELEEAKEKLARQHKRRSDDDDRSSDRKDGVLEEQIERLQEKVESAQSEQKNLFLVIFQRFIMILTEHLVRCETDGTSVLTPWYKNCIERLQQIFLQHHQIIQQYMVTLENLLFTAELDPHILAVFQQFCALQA

T3 sequence (P06654+P63073 fused): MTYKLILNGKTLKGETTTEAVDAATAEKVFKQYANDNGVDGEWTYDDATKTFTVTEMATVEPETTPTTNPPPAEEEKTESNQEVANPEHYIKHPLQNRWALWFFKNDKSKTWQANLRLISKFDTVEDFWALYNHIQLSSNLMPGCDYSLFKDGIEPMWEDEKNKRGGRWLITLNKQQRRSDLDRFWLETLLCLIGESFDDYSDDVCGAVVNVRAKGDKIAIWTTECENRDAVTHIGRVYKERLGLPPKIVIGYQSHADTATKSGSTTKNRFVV
T2 sequence (P63073 whole entry): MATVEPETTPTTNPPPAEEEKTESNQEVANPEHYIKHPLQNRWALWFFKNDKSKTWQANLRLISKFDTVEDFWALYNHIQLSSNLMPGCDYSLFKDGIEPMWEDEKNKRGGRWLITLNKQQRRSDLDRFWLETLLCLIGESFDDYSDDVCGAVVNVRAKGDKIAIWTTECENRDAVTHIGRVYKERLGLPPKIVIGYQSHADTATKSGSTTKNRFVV
T1 sequence (P06730 2-217 limits assumed): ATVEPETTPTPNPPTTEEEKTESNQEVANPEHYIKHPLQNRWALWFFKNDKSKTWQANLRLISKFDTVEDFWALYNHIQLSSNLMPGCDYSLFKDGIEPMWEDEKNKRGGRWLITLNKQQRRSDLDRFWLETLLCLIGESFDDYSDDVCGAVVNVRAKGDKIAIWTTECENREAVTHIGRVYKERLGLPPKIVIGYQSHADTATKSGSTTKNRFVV
Sequence of eIF4E (P06730 whole entry, species assumed): as the sequence (P63073 whole entry) above, with T12P, P16T, A17T, D174E counted along it
Sequence of HCV polymerase (P27958 2421-3011): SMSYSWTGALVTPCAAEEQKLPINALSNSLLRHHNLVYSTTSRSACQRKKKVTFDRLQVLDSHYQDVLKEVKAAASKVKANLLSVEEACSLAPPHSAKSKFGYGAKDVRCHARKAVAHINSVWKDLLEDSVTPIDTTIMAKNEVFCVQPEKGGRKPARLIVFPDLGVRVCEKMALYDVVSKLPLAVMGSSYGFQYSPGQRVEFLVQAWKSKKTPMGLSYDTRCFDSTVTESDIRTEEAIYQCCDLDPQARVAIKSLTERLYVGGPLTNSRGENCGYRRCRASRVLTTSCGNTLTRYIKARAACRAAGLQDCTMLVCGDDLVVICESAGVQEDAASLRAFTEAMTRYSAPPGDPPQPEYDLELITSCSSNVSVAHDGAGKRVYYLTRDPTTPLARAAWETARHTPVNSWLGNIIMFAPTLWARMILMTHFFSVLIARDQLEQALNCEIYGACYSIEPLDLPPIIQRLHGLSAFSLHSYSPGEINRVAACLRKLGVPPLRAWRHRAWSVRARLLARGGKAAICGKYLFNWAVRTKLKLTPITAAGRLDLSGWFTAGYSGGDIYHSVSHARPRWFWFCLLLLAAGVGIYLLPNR

Nc1nc2c(ncn2[C@@H]2O[C@H](COP(=O)(O)OP(=O)(O)OP(=O)(O)OC[C@H]3O[C@@H](n4cnc5c(=O)[nH]c(N)nc54)[C@H](O)[C@@H]3O)[C@@H](O)[C@H]2O)c(=O)[nH]1 [GpppG]
association of cyclin D1 mRNA with nuclear eIF4E [1]: does not disrupt

CCC(=C/[C@H](C)C/C=C/C(C)=C/[C@@H](C)C(=O)[C@@H](C)[C@H](O)[C@@H](C)C/C(C)=C/C(=O)O)/C=C/[C@@H]1OC(=O)C=C[C@@H]1C [LMB]
export of LacZ-4E-SE mRNA (4E-SE mRNA export; 10 ng/ml for 4 h): sensitive to LMB; also recorded: suppressed export

NC(=O)c1ncn([C@@H]2O[C@H](CO[P@@](=O)(O)O[P@](=O)(O)OP(=O)(O)O)[C@@H](O)[C@H]2O)n1 [RTP, Ribavirin-5′ triphosphate]
Kd (eIF4E wild-type; fluorescence spectroscopy, wild-type eIF4E, read-out: apparent dissociation constant (Kd) for eIF4E): 0.13 µM and ~0.1 µM
competition with m7G binding, protocol of Yan et al. (eIF4E:m7G binding (G4E); 0.1 M KCl, 10 mM HEPES-KOH pH 8.0, presumed 4 C): apparent failure of RTP to compete
competition with eIF4E:m7G binding (eIF4E:m7G binding (G4E); 0.3 M NaCl, 0.1 M sodium phosphate pH 7.5, room temperature, micromolar concentrations): compete with the binding of eIF4E:m7G
IC50 (eIF4E:m7G binding (G4E); Western blot of eIF4E remaining bound, read-out: concentration giving 50% reduction of eIF4E binding to m7G-Sepharose): ~1 µM
Ki (eIF4E:m7G binding (G4E); read-out: apparent inhibition constant (Ki) of eIF4E:m7G binding): ~0.3 µM
Kd (HCV polymerase): 580 µM

NC(=O)c1cn([C@@H]2O[C@H](CO)[C@@H](O)[C@H]2O)nn1 [Rib4C, 1-β-D-ribofuranosyl-1,2,3-triazole-4-carboxamide]
binding to eIF4E (eIF4E wild-type; in vitro): failed to bind eIF4E

NC(=O)c1ncn(C2OC(COP(=O)(O)OP(=O)(O)OP(=O)(O)OCC3OC(n4cnc5c(=O)[nH]c(N)nc54)C(O)C3O)C(O)C2O)n1 (centres unmarked) [RpppG]
inhibition of cap-driven translation (cap-driven translation; Westman et al. 2005): does not

Cc1c2oc3c(C)ccc(C(=O)N[C@@H]4C(=O)N[C@H](C(C)C)C(=O)N5CCC[C@H]5C(=O)N(C)CC(=O)N(C)[C@@H](C(C)C)C(=O)O[C@@H]4C)c3nc-2c(C(=O)N[C@@H]2C(=O)N[C@H](C(C)C)C(=O)N3CCC[C@H]3C(=O)N(C)CC(=O)N(C)[C@@H](C(C)C)C(=O)O[C@@H]2C)c(N)c1=O [actinomycin D] (I: T[dV]P[Sar][NMeV] / II: T[dV]P[Sar][NMeV]; ester I:1-I:C, II:1-II:C; linker I:N-II:N via Actinocin(9to1))
export of 4E-SE containing / cyclin D1 mRNA under inhibition of RNA or protein synthesis (4E-SE mRNA export): did not affect export

C[C@@H]1C[C@@H]([C@H](O)CC2CC(=O)NC(=O)C2)C(=O)[C@@H](C)C1 [cycloheximide]
export of 4E-SE containing / cyclin D1 mRNA under inhibition of RNA or protein synthesis (4E-SE mRNA export): not modulated

Nc1nc2c(ncn2[C@@H]2O[C@H](CO)[C@@H](O)[C@H]2O)c(=O)[nH]1 [guanosine]
binding to eIF4E relative to m7G cap, fold weaker (eIF4E): > 5000 fold

Cn1c[n+]([C@@H]2O[C@H](COP(=O)(O)OP(=O)([O-])O)[C@@H](O)[C@H]2O)c2nc(N)[nH]c(=O)c21 [m7GDP]
reduction of cap-driven firefly luciferase activity (cap-driven translation; 1 mM, Yan et al. 2005): fourfold

Cn1c[n+]([C@@H]2O[C@H](COP(=O)(O)OP(=O)([O-])OP(=O)(O)OC[C@H]3O[C@@H](n4cnc5c(=O)[nH]c(N)nc54)[C@H](O)[C@@H]3O)[C@@H](O)[C@H]2O)c2nc(N)[nH]c(=O)c21 [m7GpppG]
analog concentration inhibiting cap-driven translation (cap-driven translation; Westman et al. 2005): ca. 0.1 mM
association of cyclin D1 mRNA with nuclear eIF4E [1]: successfully disrupts
Kd [2]: ~0.01 µM
